Source: patent publication US20250177481A1, “SCO-spondin-derived polypeptides for enhancing synaptic transmission” (AXOLTIS PHARMA, priority 2021, published 2025)
“And” between values parts separate entries of the source, which are not always exact repeats. Equal values may be shown once. Positions of bridges follow the written chain, without caps; N, C: chain ends. No end group written: not given here.

Legend:
[1] = system: thalamocortical synaptic response (ventrobasal thalamic nucleus to somatosensory cortex); experiment: fEPSP input-output (I/O) recordings in thalamocortical mouse brain slices; format: cell-based, C57Bl6/J mice; details: for Normalized fEPSP slope: % of max of vehicle I/O curve, mean of 10 slices
Experimental: Comparison of postsynaptic responses in control versus NX218 peptide conditions were assessed.
Five (C57Bl6/J) male mice 4-5 weeks-old were obtained from Charles River, France and housed in an animal facility. Animal care was compliant with national and local Ethics committee recommendations. Mice were deeply anesthetized by inhalation of isoflurane then decapitated. The dissected brain was quickly placed in ice-cold oxygenated (95% O2/5% CO2) solution containing 214 mM sucrose, 2.5 mM KCl, 1.25 mM NaH2PO4, 26 mM NaHCO3, 2 mM MgSO4, 2 mM CaCl2 and 10 mM D-glucose.
10 Thalamocortical slices (2 slices per mouse) were prepared as described in Agmon and Connors (1991) and Varela et al. (2013). After its recovery, the brain was placed on a support allowing to elevate the caudal part of the brain until dorsal surface forms a 10-degree angle with the horizontal plane. Then, a section at 55 degrees with respect to the midline was performed and the rostral part was removed. In the slicing chamber, the brain was glued on the sectioned face. Then, the brain was sliced with a thickness of 400 μm. Slices were immediately transferred to a holding chamber filled with an artificial cerebrospinal fluid (aCSF) composed by 124 mM NaCl, 2.5 mM KCl, 1.25 mM NaH2PO4, 26 mM NaHCO3, 2 mM MgSO4, 2 mM CaCl2 and 10 mM D-glucose. The holding chamber was continuously oxygenated and maintained at 35° C. After a recovery period of 30 min, slices were incubated at room temperature for a minimum of 30 min.
For electrophysiological recordings, a single slice was placed in the recording chamber (room temperature) submerged and continuously superfused at a constant rate (2 mL/min) with gassed (95% O2, 5% CO2) aCSF for the reminder of the experiment.
A bipolar tungsten stimulating electrode was placed in the ventrobasal nucleus of the thalamus (the ventrobasal nucleus of the thalamus contains mostly glutamatergic neurons and few GABAergic interneurons) and extracellular field potential was recorded in the somatosensory cortex using a glass microelectrode.
Synaptic transmission Input/Output (I/O) curves were constructed to assess changes in the synaptic transmission, using a range of stimulus intensities from 0 μA to 850 μA with 50 μA intervals. Increasing stimulation intensities results in a linear increase until a maximal plateau in vehicle conditions.
Signals were amplified with an Axopatch 200B amplifier (Molecular Devices, Union City, CA) digitized by a Digidata 1322A interface (Axon Instruments, Molecular Devices, US) and sampled at 10 kHz. Recordings were acquired using Clampex (Molecular Devices) and analyzed with Clampfit (Molecular Devices). Experimenters were blinded to treatment groups for all experiments.
NX218 or vehicle was delivered in the thalamic radiations region by fast focal perfusion. The system consists of syringes containing the respective solutions with tubing lines fusing to a low dead-volume manifold mounted to a micromanipulator. The tip (300-μm diameter) mounted to the manifold was located within a desired distance of less than 1 mm of the target region, with a flow rates of approximately 0.2 mL/min. Tubing lines were controlled by electrical pinch valves which were opened and closed by transistor-transistor logic signals sent out from the DigiData system and parameters set in the perfusion and recording protocol in Clampex 10.3.
Data were analyzed by measuring the slope of individual fEPSPs by linear fitting using Clampfit. The slope of fEPSPs was plotted against different intensities of stimulation (from 0 to 850 μA).

[2] = system: subchronic PCP-induced cognitive deficits in mice; experiment: T-maze continuous alternation task in subchronic PCP mice; format: in vivo, Swiss CD-1 mice; details: PCP alone 30.71, control 66.43, 5 mg/kg
Source text: Phenycyclidine (PCP) is an antagonist of NMDA receptor, its administration in healthy humans produces schizophrenia-like symptoms, therefore PCP is often used to mimic schizophrenia in rodents. […] In addition, brain samples were collected shorlty after the T-Maze test to measure the levels of cerebral biomarkers involved in synaptic plasticity.
Sixty (60) male Swiss CD-1 mice were purchased from Janvier Labs (Le Genest-Saint-Isle, France) one week before the start of the study for acclimation. Mice were group-housed (6-8 mice per Eurostandard type Ill cage) and maintained in a room with controlled temperature (21-22° C.) under a reversed 12 h/12 h light-dark cycle (lights on: 5:[…]; lights off: 05:30 am) with food and water available ad libitum. The weight of mice ranged from 25.9 and 36.4 g. […]
Nicotine used as a positive control was administered at a dose of 0.4 mg/kg intraperitoneally 30 minutes prior to the T-maze trial
After administration of compounds at different timepoints all animals were tested for continuous alternation task in the T-Maze. The T-maze apparatus was made of gray Plexiglas with a main stem (55-cm long×10-cm wide×20-cm high) and two arms (30-cm long×10-cm wide×20-cm high) positioned at a 90-degree angle relative to the main stem. A start box (15-cm long×10-cm wide) was separated from the main stem by a guillotine door. Horizontal doors were also provided to close specific arms during the force choice alternation task. The experimental protocol consisted in one single session that started with 1 “forced-choice” trial, followed by 14 “free-choice” trials (Gerlai, 1998). In the first “forced-choice” trial, the mouse was confined 5 s in the start arm and then released while either the left or right goal arm was blocked by closing the sliding door. Then, it walked through the maze, eventually entered the open goal arm, and then returned to the start position. Immediately after the mouse came back to the start position, the left or right goal door was opened (i.e. the two goal doors were opened), and the mouse could choose freely between the left and right goal arms (first “free choice trial”). The mouse was considered as entered in the arm when it placed its four paws in the arm. The opposite goal door was then closed until the animal returned to the start arm. Then, a second “free choice trial” began by the opening of the closed goal door (i.e. the two goal doors were opened), leaving the choice to the mouse to enter either into the right or the left arm. The session was considered finished as soon as 14 free-choice trials had been performed in less than 10 min, and the mouse was removed from the maze. The time needed to reach these 14 “free-choices” was recorded.
The percent of spontaneous alternations was calculated as number of spontaneous alternations divided by the number of free-choice trials, an index of spatial short-term working memory. The apparatus was cleaned between each animal using alcohol (70%). Urine and feces were removed from the maze. During the trials, animal handling and the visibility of the operator were minimized as much as possible. Animals were tested in a random and blind manner.

## W-S-G-W-S-S-C-S-R-S-C-G [NX218] (WSGWSSCSRSCG; disulfide 7-11 (inferred))
[1]; particularly for stimulation intensities from 150 to 450 μA
  change of fEPSP slope vs vehicle alone (whole I/O curve): significant increase
[1]; stimulation intensity 0 µA
  Normalized fEPSP slope: 0.37%
[1]; stimulation intensity 50 µA
  Normalized fEPSP slope: 26.12%
[1]; stimulation intensity 100 µA
  Normalized fEPSP slope: 54.34%
[1]; stimulation intensity 150 µA
  Normalized fEPSP slope: 87.31%
[1]; stimulation intensity 200 µA
  Normalized fEPSP slope: 99.95%
[1]; stimulation intensity 250 µA
  Normalized fEPSP slope: 107.48%
[1]; stimulation intensity 300 µA
  Normalized fEPSP slope: 111.20%
[1]; stimulation intensity 350 µA
  Normalized fEPSP slope: 118.22%
[1]; stimulation intensity 400 µA
  Normalized fEPSP slope: 118.91%
[1]; stimulation intensity 450 µA
  Normalized fEPSP slope: 121.63%
[1]; stimulation intensity 500 µA
  Normalized fEPSP slope: 121.16%
[1]; stimulation intensity 550 µA
  Normalized fEPSP slope: 122.81%
[1]; stimulation intensity 600 µA
  Normalized fEPSP slope: 121.42%
[1]; stimulation intensity 650 µA
  Normalized fEPSP slope: 124.24%
[1]; stimulation intensity 700 µA
  Normalized fEPSP slope: 124.14%
[1]; stimulation intensity 750 µA
  Normalized fEPSP slope: 121.65%
[1]; stimulation intensity 800 µA
  Normalized fEPSP slope: 120.97%
[1]; stimulation intensity 850 µA
  Normalized fEPSP slope: 121.41%
[2]; PCP + 5 mg/kg i.p. on D12, D13 and D14 (48 h, 24 h and 2 h before trial), n=10
  Spontaneous alternations in T-maze: 62% and 62.13%
[2]; PCP + 5 mg/kg i.p. on D13 (24 h before trial), n=9
  Spontaneous alternations in T-maze: 35% and 34.92%
[2]; PCP + 5 mg/kg i.p. on D14 (2 h before trial), n=10
  Spontaneous alternations in T-maze: 53% and 52.87%
